Two compounds from patent US7311393B2, “Inkjet recording ink and method of inkjet recording” (Fujifilm Corporation, priority 2002, dated 2007) can be followed below.

Series [1] in a line: Oxidation potential of dye. Particulars: comparative dyes. In kind it is physicochemical. Here is the method:
More specifically, a test sample is dissolved to a concentration of 1×10^−4 to 1×10^−6 mol/liter in a solvent such as dimethylformamide or acetonitrile containing a supporting electrolyte such as sodium perchlorate or tetrapropylammonium perchlorate and the oxidation potential is measured as a value to SCE (saturated calomel electrode) by using a cyclic voltammetry or a direct current polarography. This value sometimes deviates on the order of tens of millivolt due to the effect of liquid junction potential, liquid resistance of sample solution, or the like, but the reproducibility of potential can be guaranteed by adding a standard sample (for example, hydroquinone).
In order to univocally specify the potential, in the present invention, the value (vs SCE) measured by a direct current polarography in a dimethylformamide (concentration of dye: 0.001 mol dm^−3) containing 0.1 mol dm^−3 of tetrapropylammonium perchlorate as the supporting electrolyte is used as the oxidation potential of the dye.

A short description of series [2]: Spectral absorption characteristics of dye. In kind it is physicochemical. Particulars: comparative dyes. The source says: The dye for use in the present invention preferably has good fastness and also has good color hue, particularly, no tailing on the long-wave side in the absorption spectrum. […]

In the case of Direct Yellow 11 [Dye (D)], in series [1], the oxidation potential was ≤ 1.0 V (vs SCE). In series [2], the “I(λmax)/I(λmax+70 nm)” value was more than 0.4.

With `Cc1nn(-c2ccc(S(=O)(=O)[O-])cc2)c(O)c1/N=N/c1cccc(S(=O)(=O)Nc2cc(C(=O)[O-])cc(C(=O)[O-])c2)c1.[K+].[K+].[K+]` [Dye (C)], the oxidation potential in series [1] was ≤ 1.0 V (vs SCE). In addition, the “I(λmax)/I(λmax+70 nm)” value in series [2] is not above 0.4.
